The target of assay [1] is T1, Lipase from human porcine pancreas (Sus scrofa, UniProt P00591).
T1 construct: purchased Sigma‐Aldrich, Inc (Shanghai, China)
T1 sequence (P00591 1-450): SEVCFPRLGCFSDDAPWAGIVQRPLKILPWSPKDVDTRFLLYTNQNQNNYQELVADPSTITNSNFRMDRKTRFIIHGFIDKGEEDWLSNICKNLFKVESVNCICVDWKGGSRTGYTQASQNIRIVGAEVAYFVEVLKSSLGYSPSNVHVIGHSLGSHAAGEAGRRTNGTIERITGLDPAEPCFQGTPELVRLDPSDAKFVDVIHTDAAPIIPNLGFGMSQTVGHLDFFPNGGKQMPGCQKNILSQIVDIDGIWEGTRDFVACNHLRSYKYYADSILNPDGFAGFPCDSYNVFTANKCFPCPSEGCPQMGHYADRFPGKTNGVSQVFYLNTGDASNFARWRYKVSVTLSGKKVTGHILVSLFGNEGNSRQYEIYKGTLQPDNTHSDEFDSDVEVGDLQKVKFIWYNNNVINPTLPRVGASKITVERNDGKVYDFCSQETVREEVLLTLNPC
The assay is described as follows: Lipase inhibition (pNP laurate substrate). It is filed as biochemical. To be noted: comparison among the anthocyanins / proanthocyanidin fractions. From the text: (§1) All the chemicals used for analyses were of analytical grade and high‐performance liquid chromatography (HPLC) chemicals were of HPLC purity and were all purchased from Sinopharm Chemical Reagent Co., Ltd (Shanghai, China). Lipase from […] porcine pancreas (EC 3.1.1.3), α‐amylase from human pancreas (EC 3.2.1.1), and α‐glucosidase from Bacillus stearothermophilus (EC 3.2.1.20) were obtained from Sigma‐Aldrich, Inc (Shanghai, China). Standards of cyanidin 3‐galactoside, cyanidin 3‐arabinoside, cyanidin 3‐xyloside, cyanidin 3‐glucoside, catechin, and epicatechin were obtained from Sigma‐Aldrich, Inc. (Shanghai, China). Amberlite XAD7HP, Sephadex LH‐20, and ENVI 18 DSK SPE were obtained from Sigma‐Aldrich, Inc (Shanghai, China).
The lipase inhibitory activity was determined according to the method described by Tan et al. ([2017]) with modifications (Table 3). Three hundred and fifty μL phosphate buffer (0.05 M, pH 7.6), 150 μL of porcine lipase enzyme solution (50 mg/mL), and 50 μL of fractionated compounds were added in a centrifuge tube (1.5 mL size) and incubated at 37°C for exactly 10 min. Then, 450 μL pNP laurate substrate was added to the reaction mixture and blended, followed by incubation at 37°C for 120 min without light. The reaction mixture was centrifuged for 10 min at 8000 g and the supernatant of 200 μL was taken into a 96‐well plate to determine the absorbance at 405 nm. The percentage inhibition was calculated using Equation 4. Lipase inhibitory activity was measured at five different concentrations, and a logarithmic regression curve was established to calculate IC50 values (Tan et al., [2017]). (4) Lipase inhibitory activity%=1−As−Ab/At−Ac×100%

The target of assay [2] is α‐Amylase. To be noted: cited from earlier work.
Assay [3] has as its target α‐Glucosidase. To be noted: cited from earlier work.
Assay [4] concerns the target Lipase. To be noted: cited from earlier work.
Assay [5] addresses T2, α‐amylase from human pancreas (Homo sapiens, UniProt P04746).
T2 construct: purchased Sigma‐Aldrich, Inc (Shanghai, China)
T2 sequence (P04746 16-511): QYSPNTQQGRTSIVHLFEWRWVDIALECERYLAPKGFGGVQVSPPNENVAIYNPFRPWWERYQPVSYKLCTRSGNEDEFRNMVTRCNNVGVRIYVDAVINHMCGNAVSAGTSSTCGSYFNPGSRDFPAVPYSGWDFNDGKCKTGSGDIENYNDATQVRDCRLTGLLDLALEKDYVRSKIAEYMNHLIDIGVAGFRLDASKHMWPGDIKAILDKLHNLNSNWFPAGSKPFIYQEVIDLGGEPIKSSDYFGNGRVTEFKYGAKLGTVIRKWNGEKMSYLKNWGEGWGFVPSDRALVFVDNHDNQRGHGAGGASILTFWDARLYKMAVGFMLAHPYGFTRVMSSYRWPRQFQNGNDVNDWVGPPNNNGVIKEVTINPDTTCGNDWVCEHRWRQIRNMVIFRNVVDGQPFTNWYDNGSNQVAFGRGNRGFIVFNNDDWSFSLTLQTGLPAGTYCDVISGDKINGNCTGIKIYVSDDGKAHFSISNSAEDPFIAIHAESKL
The assay can be described thus: α‐Amylase inhibition (DNS method, soluble starch). It is filed as biochemical. To be noted: comparison among the anthocyanins / proanthocyanidin fractions.
From the text: as §1, with “Amberlite XAD7HP, Sephadex LH‐20, and ENVI 18 DSK SPE were obtained from Sigma‐Aldrich, Inc (Shanghai, China).” left out
α‐Amylase inhibitory activity was determined using the method from Tan et al. ([2017]), with a slight modification as Table 1 indicates. […] Then, 200 μL of the mixture was taken and added to a 96‐well plate and the absorption at 540 nm was determined. To eliminate the background absorbance produced by the fractionated compounds, an appropriate extract control without enzyme was included. α‐Amylase inhibitory activity was measured at five different concentrations, and a logarithmic regression curve was established to calculate IC50 values (mg/mL) (Tan et al., [2017]). The α‐amylase inhibitory activity was expressed as function 2 and the As, Ab, At, and Ac indicated the absorbance in different solutions as shown in Table 1. […]

Where [6] appears, read: nf, not found, ref Worsztynowicz et al., 2014.
Setting [7] is: ref Akkarachiyasit et al., 2010.

Where two headings read alike, the source gives them in different places.

For the molecule `Oc1cc(O)c2cc(OC3OCC(O)C(O)C3O)c(-c3ccc(O)c(O)c3)[o+]c2c1` (centres unmarked) [Cyanidin 3‐arabinoside, cyanidin 3‐arabinoside], the “inhibition effect on lipase (in words)” value in assay [1] is “no inhibition effects”. In addition, the “IC50 values α‐Amylase” value in assay [2] (setting [6]) is 3.98 ± 0.10 mg/mL (Worsztynowicz et al., [2014]). In addition, the “IC50 values α‐Glucosidase” value in assay [3] (ref Bräunlich et al., 2013) was 0.37 ± 0.08 μg/mL (Bräunlich et al., [2013]). Besides, the “IC50 values Lipase” value in assay [4] (setting [6]) is “nf (Worsztynowicz et al., [2014])”.
As usually defined, the IC50 is the concentration that gives 50% inhibition. As to `OCC1OC(Oc2cc3c(O)cc(O)cc3[o+]c2-c2ccc(O)c(O)c2)C(O)C(O)C1O` (centres unmarked) [Cyanidin 3‐galactoside, cyanidin 3‐galactoside], the “inhibition effect on lipase (in words)” value in assay [1] was “no inhibition effects”. Further, the “IC50 values α‐Amylase” value in assay [2] (setting [6]) is given as 5.16 ± 0.06 mg/mL. The IC50 in assay [2] (setting [7]) is over 1000 µM. The “IC50 values α‐Glucosidase” value in assay [3] (for sucrose, ref Adisakwattana et al., 2009) is 224.5 ± 22.45 µg/mL; in assay [3] (ref Bräunlich et al., 2013), 1.54 ± 0.1 µg/mL. Also, the “IC50 values Lipase” value in assay [4] (setting [6]) is “nf (Worsztynowicz et al., [2014])”.
`OCC1OC(Oc2cc3c(O)cc(O)cc3[o+]c2-c2ccc(O)c(O)c2)C(O)C(O)C1O` (centres unmarked) [Cyanidin 3‐glucoside, cyanidin 3‐glucoside]: in assay [5], the “inhibition effect on α‐amylase (in words)” value is “strongest inhibition effects”. In assay [1], the “inhibition effect on lipase (in words)” value is given as “strongest inhibition effects”. Further, the figures for the “IC50 values α‐Amylase” value in assay [2] (setting [6]) and in assay [2] (setting [7]) were 1.74 ± 0.04 mg/mL and 0.1347 ± 0.00449 mg/mL, respectively. Also, the “IC50 values α‐Glucosidase” value in assay [3] (for sucrose, ref Akkarachiyasit et al., 2010) was 435.53 ± 22.45 µg/mL; in assay [3] (ref Bräunlich et al., 2013) it was 0.87 ± 0.2 µg/mL. For the same molecule, the “IC50 values Lipase” value in assay [4] (setting [6]) was 1170 ± 40 µg/mL; in assay [4] (ref Vijayaraj et al., 2019), 84.54 ± 2.94 µg/mL.
Regarding `Oc1cc(O)c2cc(OC3OCC(O)C(O)C3O)c(-c3ccc(O)c(O)c3)[o+]c2c1` (centres unmarked) [Cyanidin 3‐xyloside, cyanidin 3‐xyloside], the “inhibition effect on α‐amylase (in words)” value in assay [5] was “no effect”. Further, the “inhibition effect on lipase (in words)” value in assay [1] is “no inhibition effects”. For the same molecule, the “IC50 values α‐Amylase” value in assay [2] (setting [6]) is “nf (Worsztynowicz et al., [2014])”. In assay [3] (ref Bräunlich et al., 2013), the “IC50 values α‐Glucosidase” value is 5.5 ± 1.6 μg/mL (Bräunlich et al., [2013]). In assay [4] (setting [6]), the “IC50 values Lipase” value was “nf (Worsztynowicz et al., [2014])”.

The record behind these values is PMC10345685, “Anthocyanin and proanthocyanidin from Aronia melanocarpa (Michx.) Ell.: Purification, fractionation, and enzyme inhibition” (Food Science & Nutrition, 2023).
